The values that follow come from patent US20140377171A1, “Imaging and Treatment of Neuroendocrine Tumors with Glucose - Dependent Insulinotropic Polypeptide or Analogues or Antagonists Thereof” (priority 2011, published 2014).

Assay [1] deals with GIP receptor. The conditions noted are these: cited from earlier work.
For assay [2], the system named is GIP receptor. The conditions noted are these: cited from earlier work. This is another data set of the same source.
The conditions of assay [3]: cited from earlier work; for biological activity: truncated forms of GIP.
The next assay deals with T1, GIP receptors (Homo sapiens, UniProt P48546).
T1 construct: from tissue; host or cells: fresh frozen human tumor tissue (neuroendocrine tumors) and non-neoplastic human tissue (pancreatic islets) from surgical resection
T1 sequence (P48546 22-466): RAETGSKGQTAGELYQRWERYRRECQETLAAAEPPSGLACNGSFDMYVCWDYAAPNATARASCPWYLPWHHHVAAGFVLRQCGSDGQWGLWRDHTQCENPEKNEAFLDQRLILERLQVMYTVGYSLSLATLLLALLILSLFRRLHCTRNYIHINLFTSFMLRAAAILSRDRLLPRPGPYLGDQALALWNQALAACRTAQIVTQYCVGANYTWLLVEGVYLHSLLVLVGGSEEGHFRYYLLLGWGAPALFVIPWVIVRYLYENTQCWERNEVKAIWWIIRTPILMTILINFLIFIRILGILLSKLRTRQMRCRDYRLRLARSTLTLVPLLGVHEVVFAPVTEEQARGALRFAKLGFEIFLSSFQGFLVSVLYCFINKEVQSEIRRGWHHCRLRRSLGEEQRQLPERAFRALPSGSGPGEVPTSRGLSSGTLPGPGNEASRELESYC
Nature of the assay: In vitro GIP receptor autoradiography: displacement of 125I-GIP(1-30) in tissue sections. The class given is binding. The note with it: increasing concentrations of cold peptide; tumor and normal pancreatic islets, all examples. As to the method: It was radiolabeled by the lactoperoxidase method and purified by HPLC (Anawa, Wangen, Switzerland). The two lodo-Tyrosine analogues (peak 1 iodinated at Tyr^1 and peak 2 iodinated at Tyr^10) were analyzed by LC-ESI-MS-MS (R. Brunisholz, Functional Genomics Center Zürich, ETHZ). […] After incubation, the slides were washed five times in ice-cold Tris-HCl buffer (170 mM; pH 8.2) containing 0.25% BSA and twice in ice-cold Tris-HCl buffer without BSA. The slides were dried for 15 minutes under a stream of cold air and then exposed to Kodak films Biomax MR® for seven days at 4° C. The signals on the films were analyzed in correlation with morphology using corresponding H&E stained tissue slides. The receptor density was quantitatively assessed using tissue standards for iodinated compounds (Amersham, Aylesbury, UK) and a computer-assisted image processing system (Analysis Imaging System, Interfocus, Mering, Germany).

Assay [4] relates to TT cells (human medullary thyroid cancer cells). The conditions noted are these: 1 nM to 1000 nM GIP for 3 hours, supernatant.
Experimental: Calcitonin levels (C, pg/ml) were determined from the cell supernatant using the Calcitonin-kit from Siemens.
TT cells (derived from a human medullary thyroid carcinoma; ATCC Number: CRL-1803) were plated in 24-well plates (100′000 cells per well) and cultured for 48 hours in growth medium (nutrient mixture F12 Ham Kaighn's modification containing L-glutamine and supplemented with 10% fetal bovine serum) at 37° C. and 5% CO2. Subsequently the growth medium was replaced by the serum-free challenge medium (RPMI 1640, 10 mM HEPES and GlutaMax-I) and the cells were incubated for further 48 hours at 37° C. and 5% CO2. […] As negative control cells were treated with challenge medium containing vehicle alone. The cells were incubated for 3 hours at 37° C. and 5% CO2.
A further assay deals with islet cells. The experiment in a line: β-Cell imaging with GIP radioligands, ex vivo pancreas autoradiography. It counts as in vivo, Sprague-Dawley rats. The note with it: i.v., with or without unlabeled GIP(1-30); autoradiography correlated with insulin immunostaining. The text has this:
Animals were euthanized and the pancreas was extracted, immediately frozen, and sectioned. The sections were apposed to radiosensitive films, scanned, and immunostained for insulin.

Consider “GIP6-30: GIP fragment binding with high affinity, antagonist (FISDYSIAMDKIHQQDFVNWLLAQK; Gastric inhibitory polypeptide; UniProt P09681 57-81, looked up, fragment)”, for which the “functional mode at the GIP receptor” value in the assay with GIP receptor [1] was “act as antagonists”. Besides, the receptor binding result in the assay with GIP receptor [2] is reported as “high affinity”.

On to “GIP3-42: peptide resulting from cleavage of GIP by DPP-IV; antagonist (EGTFISDYSIAMDKIHQQDFVNWLLAQKGKKNDWKHNITQ; Gastric inhibitory polypeptide; UniProt P09681 54-93, looked up, fragment)”, for which the insulinotropic activity result in assay [3] (product of DPP-IV cleavage) is given as “lacking insulinotropic activity”. Besides, the “functional mode at the GIP receptor” value in the assay on GIP receptor [1] is on record as “antagonist of GIP1-42 induced cAMP production”.

Consider “GIP1-14: GIP fragment capable of receptor binding (YAEGTFISDYSIAM; Gastric inhibitory polypeptide; UniProt P09681 52-65, looked up, fragment)”, for which the “activation of adenylyl cyclase” value with GIP receptor [1] was “activation of adenylyl cyclase”. Moreover, in the assay on GIP receptor [2], the receptor binding result is reported as “capable of receptor binding”.

Take “GIP19-30: C-terminal GIP fragment capable of receptor binding (QQDFVNWLLAQK; Gastric inhibitory polypeptide; UniProt P09681 70-81, looked up, fragment)”: the “activation of adenylyl cyclase” value in the assay with GIP receptor [1] was “activation of adenylyl cyclase”. Besides, the receptor binding entry in the assay on GIP receptor [2] is on record as “capable of receptor binding”.

“GIP7-30-NH2: GIP fragment amide binding with high affinity, antagonist”: in the assay with GIP receptor [1], the “functional mode at the GIP receptor” value is listed as “act as antagonists”. Moreover, the receptor binding entry with GIP receptor [2] is “high affinity”.

Take “glucagon(1-29): glucagon receptor selective agonist (Bachem)”: the “displacement of 125I-GIP(1-30) (affinity)” value with GIP receptors is on record as “not displaced”.

Take “GIP(1-30): truncated form of GIP; cold human GIP(1-30), parent peptide of the radioligand (YAEGTFISDYSIAMDKIHQQDFVNWLLAQK; Gastric inhibitory polypeptide; UniProt P09681 52-81, looked up, fragment)”: in assay [3], the biological activity entry is on record as “retain a high degree of biological activity”.

For the substance “glucose-dependent insulinotropic polypeptide [GIP]”, the calcitonin release entry in assay [4] is given as “stimulates calcitonin release”.

In the case of “^111In-DOTA-GIP(1-30): GIP(1-30) carrying 111In complexed through DOTA chelator; GIP radioligand for β-cell imaging”, in the assay with islet cells, the “localisation of radioligand binding in pancreas” value was “restricted to islet cells”.

With “GIP1-39: truncated form of GIP (YAEGTFISDYSIAMDKIHQQDFVNWLLAQKGKKNDWKHN; Gastric inhibitory polypeptide; UniProt P09681 52-90, looked up, fragment)”, the biological activity entry in assay [3] is “retain a high degree of biological activity”.

“GLP-2: GLP-2 receptor selective agonist (Bachem)”: the “displacement of 125I-GIP(1-30) (affinity)” value in the assay with GIP receptors was “not displaced”.
